Key:
Type in all cases: physicochemical
[1] = Triplet energy
[2] = Relative quantum yield of initiator decomposition in presence of monomer (IR at 1770 cm^-1); details: for relative quantum yield φrel of decomposition: benzene, initiator 2 × 10^-2 M
Description: Commercial styrene is washed three times with ice cold 2% NaOH solution followed by washing (four times) with distilled water. The styrene is dried over anhydrous CaCl2 and distilled under vacuum before use. The middle fraction of the distillate is used for polymerization. Solvents are purified by conventional means and distilled under N2 atmosphere.
The irradiations are carried out in degassed (three cycles of freeze-thaw under high vacuum) sealed 15-mm Pyrex tubes. The tubes are placed in a merry-go-round with a filtered UV source of 366 nm at the center and the yield of polymer is measured (below 10% conversion) gravimetrically. In all of the cases, tubes of the same size and same volume of solution are used. Number-average molecular weights of the purified polymers are determined by viscometry in a benzene solution. After the polymerization, an aliquot of 0.5 ml from each reaction tube is placed in 2-ml volumetric flasks. The solvent and excess monomer are evaporated under high vacuum for several hours. The remaining flask contents are dissolved in 0.5 ml of benzene or chloroform and the polymer is precipitated by adding 0.5 ml of n-hexane. The solution then is centrifuged and the IR of the centrifugate is measured to determine undecomposed perester. All of the above procedures are carried out as far as possible in the dark. The light intensity is measured by benzophenone-benzhydrol actinometry and observed to be Io =6.56×10^17 quanta/min on the average. The temperature of the tubes is maintained at 30° C.
The decomposition of the initiator employed is followed by IR at 1770 cm^-1 (caused by the carbonyl adjacent to the peroxy group) against an appropriate solvent blank. The initiators employed are .rho.-benzoylperoxybenzoic acid tert-butylester (Ia) and prior art benzophenone peroxide. In addition, the above procedure is repeated except that methyl methacrylate is employed in place of styrene. Table IX below illustrates the relative quantum yield for the decomposition of the initiators in the recited amounts of monomers, assuming that the quantum yield for the decomposition of the perester and peroxide in the absence of any monomer is one.

[3] = Photodecomposition kinetics and quantum yields at 366 nm (benzophenone-benzhydrol actinometry)
Description: Kinetic studies are carried out in degassed, sealed tubes by irradiating them with 366 nm light obtained from a Hanovia medium-pressure mercury lamp by combining the Corning Filters 0-52 and 7-60. The decompositions of the […] followed by the carbonyl IR absorption adjacent to the peroxide group (O=COO--) (1770 cm^-1). Benzophenone-benzhydrol redox actinometry are used throughout the study. In particular, a solution of […] (2 mL) in the appropriate solvent is placed in Pyrex tubes (12-mm diameter), degassed, and sealed under vacuum. Three cycles of freeze-thaw removes dissolved oxygen. The tubes are placed in a merry-go-round around a water-cooled light source, removed at different predetermined intervals, and kept frozen in liquid nitrogen in the dark until analysis is done. The estimation of […] done by quantitative IR, monitoring the carbonyl peak at 1770 cm^-1. […] Absorbance is measured with a 0.1 mm NaCl cell against solvent reference. With every run, two tubes containing actinometric solutions (benzophenone (0.1 M) and benzhydrol (0.05 M) in benzene are irradiated.

[4] = Relative quantum yield of initiator decomposition in presence of monomer (IR at 1770 cm^-1); details: benzene, initiator 2 × 10^-2 M
Description: Commercial methyl methacrylate monomer is washed three times with 2% NaOH solution to remove stabilizer. It is then washed with distilled water three times, dried with molecular sieves, and distilled under vacuum before use. Polymerization solutions are prepared in cylindrical tubes which are degassed and sealed. The amount of polymer formed is determined by precipitating the polymer with an excess of methanol, washing with methanol, and filtering through fine sintered crucibles (previously weighed) followed by drying in a vacuum oven. The irradiation condition is the same as that in the decomposition rate example hereinabove.
The irradiations are carried out in degassed (three cycles of freeze-thaw under high vacuum) sealed 15-mm Pyrex tubes. The tubes are placed in a merry-go-round with a filtered UV source of 366 nm at the center and the yield of polymer is measured (below 10% conversion) gravimetrically. In all of the cases, tubes of the same size and same volume of solution are used. Number-average molecular weights of the purified polymers are determined by viscometry in a benzene solution. […] The solution then is centrifuged and the IR of the centrifugate is measured to determine undecomposed perester. […] The light intensity is measured by benzophenone-benzhydrol actinometry and observed to be Io =6.56×10^17 quanta/min on the average. […]

For `CC(C)(C)OOC(=O)c1ccc(C(=O)c2ccccc2)cc1` [Ia, t-Butyl-4-Benzoylperbenzoate], the “triplet energy ET” value [1] was 67.7 kcal/mol, the “effect of styrene on quantum yield of decomposition, in words” value [2] was “Styrene drastically reduces the quantum yield of decomposition” and the “relative quantum yield φrel of decomposition” value (“relative quantum yield φrel” for short) ([2]; styrene 1.09 M) was 0.25. The “relative quantum yield φrel” value ([2]; styrene 2.19 M) was 0.20, the “relative quantum yield φrel” value ([2]; styrene 3.28 M) was 0.14 and the “relative quantum yield φrel” value ([2]; styrene 4.37 M) was 0.12. The “relative quantum yield φrel” value ([2]; styrene 8.73 M) was “very low”, the “photodecomposition behaviour, in words” value ([3]; 366 nm radiation, room temperature) was “decomposes smoothly at room temperature” and the “apparent first-order photodecomposition rate constant kd × 10^4” value ([3]; C6 H6, 25° C., 366 nm, I = 6.56 × 10^17 quanta/min, 5.03-6.06 × 10^-2 M, given as kd × 10^4) was 1.84 s^-1. For the same compound, the “quantum yield of decomposition (φ of dec)” value (from here on “quantum yield … (φ of dec)”) ([3]; C6 H6, 366 nm, perester 5.03-6.06 × 10^-2 M) was 0.94, the “quantum yield … (φ of dec)” value ([3]; CCl4, 3.56 × 10^-2 M, TBP 3.76 × 10^-2 M) was 0.74 and the “quantum yield … (φ of dec)” value ([3]; CCl4, 3.56 × 10^-2 M, no TBP) was 0.90. The “quantum yield … (φ of dec)” value ([3]; CCl4, 4.78 × 10^-2 M, TBP 5.01 × 10^-2 M) was 0.79, the “quantum yield … (φ of dec)” value ([3]; CCl4, 7.16 × 10^-2 M, no TBP) was 1.05 and the “quantum yield … (φ of dec)” value ([3]; methanol, TBP 5.08 × 10^-2 M, Ia 5.38, Ib 6.15 × 10^-2 M) was 0.64. For the same compound, the “quantum yield … (φ of dec)” value ([3]; methanol, no TBP, Ia 5.38, Ib 6.15, Ic 5.10 × 10^-2 M) was 2.77, the “relative quantum yield φrel” value ([4]; methyl methacrylate 2.34 M) was 0.88 and the “relative quantum yield φrel” value ([4]; methyl methacrylate 4.68 M) was 0.80.
